Laboratory results: paper PMC5894102 (Journal of medicinal chemistry, 2017)

Assays:
[1] = Mouse pharmacokinetic study; format: in vivo, CD1 mice; conditions: male, CD1, mouse, plasma, iv, 2 mg/kg
LDHA = LDHA (Homo sapiens, UniProt P00338); format: cell-based
in vitro = conditions: human, A673 cells
[2] = molecular target: human lactate dehydrogenase 5 (LDHA) (Homo sapiens, UniProt P00338); experiment: LDHA biochemical assay
CYP = conditions: cited from earlier work
[3] = cited from earlier work
MiaPaCa-2 cells = conditions: 120 hours

NS(=O)(=O)c1ccc(Cc2c(-c3cccc(-c4ccccc4)c3)nn(-c3nc(C(=O)O)cs3)c2C2CC2)cc1 [Analog 61]
half-life [1]: 51 min

NS(=O)(=O)c1ccc(Cc2c(-c3ccccc3)nn(-c3nc(C(=O)O)cs3)c2CC2CC2)cc1 [Analog 62]
CETSA: Cellular LDHA stabilization AUC (norm'd) (LDHA): 100.00

NS(=O)(=O)c1ccc(Cc2cn(-c3nc(C(=O)O)cs3)nc2-c2ccc(F)c(F)c2)cc1 [Analog 42]
IC50 at 48 h (in vitro): > 57 µM

O=C(O)c1csc(-n2nc(-c3ccccc3)cc2O)n1 [Analog 11]
improvement in potency on replacing CF3 by OH [2]: > 100 fold

O=C(O)c1csc(-n2nc(-c3ccc(F)cc3)cc2O)n1 [Analog 16]
IC50 [2]: 0.15 µM

O=C(O)c1csc(-n2nc(-c3ccccc3)cc2C(F)(F)F)n1 [Analog 5]
CYP inhibition (CYP): no appreciable CYP inhibition | stability in human plasma [3]: stable in human plasma

COc1ncc(-c2ccc3c(Nc4cc(Oc5cc(F)cc(F)c5)cc(C(=O)O)c4)c(S(=O)(=O)NC4CC4)cnc3c2)c(OC)n1 [Analog 2]
IC50 at 48 h (in vitro): > 57 µM

NS(=O)(=O)c1ccc(Cc2cn(-c3nc(C(=O)O)cs3)nc2-c2cccc(-c3ccccc3)c2)cc1 [Analog 44]
CETSA: Cellular LDHA stabilization Max stab. (norm'd) (LDHA; A673 cells, Western blot band intensity scaled to maximum response of 44): 100.0

NS(=O)(=O)c1ccc(Cc2c(-c3cccc(-c4ccccc4)c3)nn(-c3nc(C(=O)O)cs3)c2CC2CC2)cc1 [Analog 63]
concentration with nearly complete arrest of cell growth (MiaPaCa-2 cells): 20 µM | lowest concentration with effects on cellular proliferation (MiaPaCa-2 cells; dose-response): 250 nM
